{
  "source": "patent US10537540B2",
  "about": "“Pharmaceutical composition for promoting nerve injury restoration and application thereof” (priority 2012, dated 2020)",
  "origin": "cited, not measured here",
  "key": {"[1]": {"system": "rat spinal cord injury model"}, "[2]": {"settings": "intravenous infusion of 5 g"}},
  "data": [
    {"smiles": "Cc1c(C)c2c(c(C)c1OP(=O)([O-])OC1=C(O)[C@@H]([C@@H](O)CO)OC1=O)CC[C@@](C)(CCC[C@H](C)CCC[C@H](C)CCCC(C)C)O2.[K+]", "note": "[EPC-K1]", "values": [
      {"measurement": "Lipid peroxidation and free radicals after spinal cord injury", "setting": "[1]", "result": "significantly block lipid peroxidation and remove free radicals"}
    ]},
    {"smiles": "Cc1ncc(CO)c(CO)c1O.Cl", "note": "[vitamin B6]", "values": [
      {"measurement": "Urine induced", "setting": "[2]", "result": "about 380 mL"}
    ]}
  ]
}
